Measurements reported in publication PMC8330742, “New benzothieno[2,3-c]pyridines as non-steroidal CYP17 inhibitors: design, synthesis, anticancer screening, apoptosis induction, and in silico ADME profile studies” (Journal of Enzyme Inhibition and Medicinal Chemistry, 2021).

How the values were obtained:
CCRF-CEM = test: NCI-60 SRB screen; type: cell-based; conditions: Homo sapiens, single dose 10^−5 M, read-out: Growth inhibition (%)
HL-60(TB) = test: NCI-60 SRB screen; type: cell-based, human; conditions: Homo sapiens; HL-60 (TB); single dose 10^−5 M; read-out: Growth inhibition (%)
K-562 = test: NCI-60 SRB screen; type: cell-based, human; conditions: Homo sapiens, K562; K-562; single dose 10^−5 M; read-out: Growth inhibition (%)
MOLT-4 = test: NCI-60 SRB screen; type: cell-based; conditions: Homo sapiens; MOLT-4; single dose 10^−5 M; read-out: Growth inhibition (%)
SR = test: NCI-60 SRB screen; type: cell-based; conditions: Homo sapiens, single dose 10^−5 M, read-out: Growth inhibition (%)
A549/ATCC = test: NCI-60 SRB screen; type: cell-based, human; conditions: Homo sapiens, single dose 10^−5 M, read-out: Growth inhibition (%)
EKVX = test: NCI-60 SRB screen; type: cell-based, human; conditions: Homo sapiens, single dose 10^−5 M, read-out: Growth inhibition (%)
HOP-62 = test: NCI-60 SRB screen; type: cell-based, human; conditions: Homo sapiens; HOP-62; single dose 10^−5 M; read-out: Growth inhibition (%)
NCI-H226 = test: NCI-60 SRB screen; type: cell-based, human; conditions: Homo sapiens; NCI-H226; single dose 10^−5 M; read-out: Growth inhibition (%)
NCI-H23 = test: NCI-60 SRB screen; type: cell-based, human; conditions: Homo sapiens; NCI-H23; single dose 10^−5 M; read-out: Growth inhibition (%)
NCI-H322M = test: NCI-60 SRB screen; type: cell-based, human; conditions: Homo sapiens, single dose 10^−5 M, read-out: Growth inhibition (%)
NCI-H460 = test: NCI-60 SRB screen; type: cell-based, human; conditions: Homo sapiens; NCI-H460; single dose 10^−5 M; read-out: Growth inhibition (%)
NCI-H522 = test: NCI-60 SRB screen; type: cell-based, human; conditions: Homo sapiens; NCI-H522; single dose 10^−5 M; read-out: Growth inhibition (%)
COLO 205 = test: NCI-60 SRB screen; type: cell-based, human; conditions: Homo sapiens; COLO 205; single dose 10^−5 M; read-out: Growth inhibition (%)
HCC-2998 = test: NCI-60 SRB screen; type: cell-based, human; conditions: Homo sapiens; HCC-2998; single dose 10^−5 M; read-out: Growth inhibition (%)
HCT-116 = test: NCI-60 SRB screen; type: cell-based, human; conditions: Homo sapiens; HCT-116; single dose 10^−5 M; read-out: Growth inhibition (%)
HCT-15 = test: NCI-60 SRB screen; type: cell-based, human; conditions: Homo sapiens; HCT-15; single dose 10^−5 M; read-out: Growth inhibition (%)
HT-29 = test: NCI-60 SRB screen; type: cell-based; conditions: Homo sapiens; HT-29; single dose 10^−5 M; read-out: Growth inhibition (%)
KM12 = test: NCI-60 SRB screen; type: cell-based, human; conditions: Homo sapiens; KM12; single dose 10^−5 M; read-out: Growth inhibition (%)
SW-620 = test: NCI-60 SRB screen; type: cell-based; conditions: Homo sapiens; SW-620; single dose 10^−5 M; read-out: Growth inhibition (%)
SF-268 = test: NCI-60 SRB screen; type: cell-based, human; conditions: Homo sapiens; SF-268; single dose 10^−5 M; read-out: Growth inhibition (%)
SF-295 = test: NCI-60 SRB screen; type: cell-based, human; conditions: Homo sapiens; SF-295; single dose 10^−5 M; read-out: Growth inhibition (%)
LOX IMVI = test: NCI-60 SRB screen; type: cell-based, human; conditions: Homo sapiens, single dose 10^−5 M, read-out: Growth inhibition (%)
MALME-3M = test: NCI-60 SRB screen; type: cell-based, human; conditions: Homo sapiens, single dose 10^−5 M, read-out: Growth inhibition (%)
M14 = test: NCI-60 SRB screen; type: cell-based, human; conditions: Homo sapiens; M14; single dose 10^−5 M; read-out: Growth inhibition (%)
MDA-MB-435 = test: NCI-60 SRB screen; type: cell-based; conditions: Homo sapiens, MDA-MB-435, read-out: Growth inhibition (%)
SK-MEL-2 = test: NCI-60 SRB screen; type: cell-based, human; conditions: Homo sapiens; SK-MEL-2; single dose 10^−5 M; read-out: Growth inhibition (%)
SK-MEL-28 = test: NCI-60 SRB screen; type: cell-based; conditions: Homo sapiens; SK-MEL-28; single dose 10^−5 M; read-out: Growth inhibition (%)
SK-MEL-5 = test: NCI-60 SRB screen; type: cell-based, human; conditions: Homo sapiens; SK-MEL-5; single dose 10^−5 M; read-out: Growth inhibition (%)
UACC-257 = test: NCI-60 SRB screen; type: cell-based, human; conditions: Homo sapiens, UACC-257; UACC-275 (so in the source); single dose 10^−5 M; read-out: Growth inhibition (%)
UACC-62 = test: NCI-60 SRB screen; type: cell-based, human; conditions: Homo sapiens; UACC-62; single dose 10^−5 M; read-out: Growth inhibition (%)
IGROV1 = test: NCI-60 SRB screen; type: cell-based, human; conditions: Homo sapiens, IGROV-1; IGROV1; single dose 10^−5 M; read-out: Growth inhibition (%)
OVCAR-3 = test: NCI-60 SRB screen; type: cell-based, human; conditions: Homo sapiens; OVCAR-3; single dose 10^−5 M; read-out: Growth inhibition (%)
OVCAR-4 = test: NCI-60 SRB screen; type: cell-based, human; conditions: Homo sapiens; OVCAR-4; single dose 10^−5 M; read-out: Growth inhibition (%)
OVCAR-8 = test: NCI-60 SRB screen; type: cell-based, human; conditions: Homo sapiens; OVCAR-8; single dose 10^−5 M; read-out: Growth inhibition (%)
NCI/ADR-RES = test: NCI-60 SRB screen; type: cell-based, human; conditions: Homo sapiens, single dose 10^−5 M, read-out: Growth inhibition (%)
SK-OV-3 = test: NCI-60 SRB screen; type: cell-based, human; conditions: Homo sapiens; SK-OV-3; single dose 10^−5 M; read-out: Growth inhibition (%)
786-0 = test: NCI-60 SRB screen; type: cell-based; conditions: Homo sapiens; 786-0; single dose 10^−5 M; read-out: Growth inhibition (%)
ACHN = test: NCI-60 SRB screen; type: cell-based; conditions: Homo sapiens, single dose 10^−5 M, read-out: Growth inhibition (%)
RXF 393 = test: NCI-60 SRB screen; type: cell-based, human; conditions: Homo sapiens; RXF 393; single dose 10^−5 M; read-out: Growth inhibition (%)
SN12C = test: NCI-60 SRB screen; type: cell-based, human; conditions: Homo sapiens, SN12C; SN 12 C; single dose 10^−5 M; read-out: Growth inhibition (%)
TK-10 = test: NCI-60 SRB screen; type: cell-based, human; conditions: Homo sapiens; TK-10; single dose 10^−5 M; read-out: Growth inhibition (%)
UO-31 = test: NCI-60 SRB screen; type: cell-based, human; conditions: Homo sapiens; UO-31; single dose 10^−5 M; read-out: Growth inhibition (%)
[1] = test system: panel of 60 cancer cell lines; test: NCI-60 SRB screen, mean or range over the panel; type: cell-based, human; conditions: Homo sapiens; mean over the cell lines; single dose 10^−5 M; read-out: Mean growth inhibition (%)

**Q.** Which results are given for `COc1ccc(C=C2Sc3c(F)cccc3C2=O)c(OC)c1` [Compound 2a, 2-(2,4-Dimethoxybenzylidene)-7-fluoro[1]benzothiophen-3(2H)-one]?
**A.** inhibition at 10 µM (CCRF-CEM): -5.14%; inhibition at 10 µM (HL-60(TB)): 11%; inhibition at 10 µM (K-562): 4.76%; inhibition at 10 µM (MOLT-4): 4.1%; inhibition at 10 µM (SR): 6.3%; inhibition at 10 µM (A549/ATCC): -7.82%; inhibition at 10 µM (EKVX): -5.71%; inhibition at 10 µM (HOP-62): 5.99%; inhibition at 10 µM (NCI-H226): 0.31%; inhibition at 10 µM (NCI-H23): -4.04%; inhibition at 10 µM (NCI-H322M): 0.25%; inhibition at 10 µM (NCI-H460): -6.08%; inhibition at 10 µM (NCI-H522): 6.14%; inhibition at 10 µM (COLO 205): -16%; inhibition at 10 µM (HCC-2998): -12.8%; inhibition at 10 µM (HCT-116): -3.66%; inhibition at 10 µM (HCT-15): -9.73%; inhibition at 10 µM (HT-29): -9.18%; inhibition at 10 µM (KM12): -5.55%; inhibition at 10 µM (SW-620): -4.67%; inhibition at 10 µM (SF-268): 4.51%; inhibition at 10 µM (SF-295): -4.69%; inhibition at 10 µM (LOX IMVI): -0.02%; inhibition at 10 µM (MALME-3M): 4.19%; inhibition at 10 µM (M14): -5.61%; inhibition at 10 µM (MDA-MB-435): -0.27%; inhibition at 10 µM (SK-MEL-2): -17.9%; inhibition at 10 µM (SK-MEL-28): -7.93%; inhibition at 10 µM (SK-MEL-5): -2.91%; inhibition at 10 µM (UACC-257): -15.2%; inhibition at 10 µM (UACC-62): 7.33%; inhibition at 10 µM (IGROV1): 0.46%; inhibition at 10 µM (OVCAR-3): -7.34%; inhibition at 10 µM (OVCAR-4): -6.44%; inhibition at 10 µM (OVCAR-8): -4.32%; inhibition at 10 µM (NCI/ADR-RES): -3.61%; inhibition at 10 µM (SK-OV-3): 6.36%; inhibition at 10 µM (786-0): -12.2%; inhibition at 10 µM (ACHN): -4.06%; inhibition at 10 µM (RXF 393): -27.9%; inhibition at 10 µM (SN12C): -0.73%; inhibition at 10 µM (TK-10): -34.9%; inhibition at 10 µM (UO-31): 25%; inhibition at 10 µM [1]: -3.74%
